These are literature values, as cited in US20140366440A1, “METHOD FOR PRODUCING CLONE SEEDLINGS” (OKAYAMA PREFECTURE, priority 2009, published 2014).

For data set [1], the system named is callus of a tobacco plant. The settings on record: cited from earlier work.
Data set [2] has as its system calluses of a Russell prairie gentian. The settings on record: medium containing glutathione; cited from earlier work.
Another data set concerns calluses of a rice plant. The following applies: medium containing glutathione; cited from earlier work.
In data set [3] the test system is Eucalyptus globulus elite tree. The settings on record: in the presence of auxin; Sotelo and Monza, Agrociencia (2007); cited from earlier work.

As for `CCCCS(=N)(=O)CCC(N)C(=O)O` (centres unmarked) [buthionine sulfoximine (BSO), buthionine sulfoximine, reference compound], the “number of differentiation of adventitious buds per callus” value in data set [1] (addition of BSO) is recorded as “remarkably increases”.

Consider `N[C@@H](CCC(=O)N[C@@H](CS)C(=O)NCC(=O)O)C(=O)O` [glutathione], for which the redifferentiation of callus (in data set [2]; in the data set on calluses of a rice plant) was “promotes redifferentiation” each time. In data set [1] (addition of glutathione of 1 mM), the “forming an adventitious bud from callus” value is reported as “inhibits”.

auxin: the rooting rate in data set [3] is not above 25%.
